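Briefly, cells in 96-well plates were exposed to five compound concentrations for 48 h, and endpoints were estimated by linear interpolation. GI50 marks 50% less growth. The concentration for full growth arrest is given as TGI.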
Key:
Assay in all cases: NCI tumour cell line growth inhibition, 48 h
[1] = system: NCI-H23 lung
[2] = system: NCI-H460 lung
[3] = system: NCI-H522 lung
[4] = system: NCI/ADR-RES ovarian
[5] = system: OVCAR-3 ovarian
[6] = system: OVCAR-4 ovarian
[7] = system: OVCAR-5 ovarian
[8] = system: OVCAR-8 ovarian
[9] = system: PC-3 prostate
[10] = system: RPMI-8226 leukemia
[11] = system: RXF 393 renal
[12] = system: SF-268 CNS
[13] = system: SF-295 CNS
[14] = system: SF-539 CNS
[15] = system: SK-MEL-2 melanoma
[16] = system: SK-MEL-28 melanoma
[17] = system: SK-MEL-5 melanoma
[18] = system: SK-OV-3 ovarian
[19] = system: SN12C renal
[20] = system: SNB-19 CNS
[21] = system: SNB-75 CNS
[22] = system: SW-620 colon
[23] = system: T-47D breast
[24] = system: TK-10 renal
[25] = system: U251 CNS
[26] = system: UACC-257 melanoma
[27] = system: UACC-62 melanoma
[28] = system: UO-31 renal

Work on `COc1cc2oc(-c3cccc(C(=O)Nc4ccc(Cl)cc4)c3)cc(=O)c2c(OCCN)c1OC` yielded a GI50 [1] of 6.22 µM, a TGI [1] of 19 µM and a GI50 [2] of 3.17 µM. For the same compound, the TGI [2] was 10.5 µM, the GI50 [3] was 4.24 µM and the TGI [3] was 19.8 µM. For the same compound, the GI50 [4] was 13.6 µM, the TGI [4] was 30.9 µM and the GI50 [5] was 3.77 µM. It also gave a TGI [5] of 11.7 µM, a GI50 [6] of 4.38 µM and a TGI [6] of 16.8 µM. It also gave a GI50 [7] of 5.14 µM, a TGI [7] of 18 µM and a GI50 [8] of 4.09 µM. It also gave a TGI [8] of 19.4 µM, a GI50 [9] of 2.89 µM and a TGI [9] of 19.8 µM. It also gave a GI50 [10] of 2.3 µM, a TGI [10] of 5.5 µM and a GI50 [11] of 3.23 µM. It also gave a TGI [11] of 12.7 µM, a GI50 [12] of 11.8 µM and a TGI [12] of 29.7 µM. The GI50 [13] was 1.8 µM, the TGI [13] was 3.69 µM and the GI50 [14] was 3.13 µM. It also gave a TGI [14] of 10.2 µM, a GI50 [15] of 4.02 µM and a TGI [15] of 16.2 µM. It also gave a GI50 [16] of 1.64 µM, a TGI [16] of 3.03 µM and a GI50 [17] of 1.72 µM. It also gave a TGI [17] of 3.33 µM, a GI50 [18] of 11.8 µM and a TGI [18] of 31.9 µM. The GI50 [19] was 6.12 µM, the TGI [19] was 19 µM and the GI50 [20] was 4.02 µM. The TGI [20] was 13.9 µM, the GI50 [21] was 10.1 µM and the TGI [21] was 24.1 µM. For the same compound, the GI50 [22] was 1.85 µM, the TGI [22] was 3.46 µM and the GI50 [23] was 3.74 µM. For the same compound, the TGI [23] was 23.4 µM, the GI50 [24] was 7.19 µM and the TGI [24] was 21.8 µM. For the same compound, the GI50 [25] was 1.79 µM, the TGI [25] was 3.27 µM and the GI50 [26] was 1.73 µM. It also gave a TGI [26] of 3.41 µM, a GI50 [27] of 9.27 µM and a TGI [27] of 22 µM. For the same compound, the GI50 [28] was 13 µM and the TGI [28] was 25.7 µM.
